Data from ChEMBL document CHEMBL5154814, “Discovery of MK-1454: A Potent Cyclic Dinucleotide Stimulator of Interferon Genes Agonist for the Treatment of Cancer” (J Med Chem, 2022).
Values belong to the compound of their own block, whether it stands above or below them. Calls of active or inactive are those of the source. The rule behind the calls is not given here.

Columns and labels:
[1] = Drug uptake in plasma of C57BL/6J mouse implanted with mouse MC38 cells assessed as drug concentration at 20 ug,IT administrated on right flank on day 0 measured upto 1 hr by LC-MS analysis; assay type: ADME, cell-free, MC-38; details: in vivo, other, dose 20 µg
[2] = Drug uptake in tumor of C57BL/6J mouse implanted with mouse MC38 cells assessed as drug concentration at 20 ug,IT administrated on right flank on day 0 measured upto 1 hr by LC-MS analysis; assay type: ADME, tissue-based, Neoplasm, MC-38; details: in vivo, other, dose 20 µg
[3] = Drug uptake in tumor of C57BL/6J mouse implanted with mouse MC38 cells assessed as drug concentration at 20 ug,IT administrated on left flank on day 0 measured upto 1 hr by LC-MS analysis; assay type: ADME, tissue-based, Neoplasm, MC-38; details: in vivo, other, dose 20 µg
[4] = Drug uptake in plasma of C57BL/6J mouse implanted with mouse MC38 cells assessed as drug concentration at 20 ug,IT administrated on left flank on day 0 measured upto 1 hr by LC-MS analysis; assay type: ADME, cell-free, MC-38; details: in vivo, other, dose 20 µg
[5] = system: Mus musculus; assay: Antitumor immunity in mouse MC38 cells implanted in C57BL/6J mouse assessed as increase in TNF-alpha level in injected tumor at 5 to 20 ug,IT administrated in right flank on day 0 measured after 4 hrs by mesoscale assay; assay type: functional, organism-based; details: MC-38, dose 5-20 µg
[6] = system: Mus musculus; assay: Antitumor immunity in mouse MC38 cells implanted in C57BL/6J mouse assessed as increase in IFN-beta level in injected tumor at 5 to 20 ug,IT administrated in right flank on day 0 measured after 4 hrs by ELISA; assay type: functional, organism-based; details: MC-38, dose 5-20 µg
[7] = system: B16-F10; assay: Antitumor activity against mouse B16-F10 cells implanted in C57BL/6J mouse assessed as reduction in tumor growth at 4 ug,IT administered for day 0,3,7 followed by anti-mouse PD-1 antibody Mdx400 incubated for 28 days measured twice a week; assay type: functional; details: dose 4.0 µg, time 28.0 day
[8] = system: Mus musculus; assay: Antitumor immunity in mouse MC38 cells implanted in C57BL/6J mouse assessed as increase in IL-6 level in injected tumor at 5 to 20 ug,IT administrated in right flank on day 0 measured after 4 hrs by mesoscale assay; assay type: functional, organism-based; details: MC-38, dose 5-20 µg
[9] = system: MC-38; assay: Antitumor activity against mouse MC38 cells implanted in C57BL/6J mouse assessed as reduction in tumor growth on right flank at 5 ug,IT administrated in right flank on day 0, 3 and 7 measured after 15 days; assay type: functional, cell-based; details: dose 5.0 µg, time 15.0 day
[10] = system: MC-38; assay: Antitumor activity against mouse MC38 cells implanted in C57BL/6J mouse assessed as reduction in tumor growth on right flank at 20 ug,IT administrated in right flank on day 0, 3 and 7 measured after 15 days; assay type: functional, cell-based; details: dose 20.0 µg, time 15.0 day
[11] = system: MC-38; assay: Antitumor activity against mouse MC38 cells implanted in C57BL/6J mouse assessed as reduction in tumor growth at 4 ug,IT administered for day 0,3,7 followed by anti-mouse PD-1 antibody Mdx400 incubated for 28 days measured twice a week; assay type: functional, cell-based; details: dose 4.0 µg, time 28.0 day
[12] = system: Mus musculus; assay: Antitumor immunity in mouse MC38 cells implanted in C57BL/6J mouse assessed as increase in IFN-beta level in injected tumor at 100 to 500 ug,IT administrated in right flank on day 0 measured after 4 hrs by ELISA; assay type: functional, organism-based; details: MC-38, dose 100-500 µg
[13] = system: Mus musculus; assay: Antitumor immunity in mouse MC38 cells implanted in C57BL/6J mouse assessed as increase in TNF-alpha level in injected tumor at 100 to 500 ug,IT administrated in right flank on day 0 measured after 4 hrs by mesoscale assay; assay type: functional, organism-based; details: MC-38, dose 100-500 µg
[14] = system: Mus musculus; assay: Antitumor immunity in mouse MC38 cells implanted in C57BL/6J mouse assessed as increase in IL-6 level in injected tumor at 100 to 500 ug,IT administrated in right flank on day 0 measured after 4 hrs by mesoscale assay; assay type: functional, organism-based; details: MC-38, dose 100-500 µg
[15] = target: Stimulator of interferon genes protein (Mus musculus, UniProt Q3TBT3); details: bmdc
Stimulator of interferon genes protein, sequence (Q3TBT3 whole entry, looked up, change not shown): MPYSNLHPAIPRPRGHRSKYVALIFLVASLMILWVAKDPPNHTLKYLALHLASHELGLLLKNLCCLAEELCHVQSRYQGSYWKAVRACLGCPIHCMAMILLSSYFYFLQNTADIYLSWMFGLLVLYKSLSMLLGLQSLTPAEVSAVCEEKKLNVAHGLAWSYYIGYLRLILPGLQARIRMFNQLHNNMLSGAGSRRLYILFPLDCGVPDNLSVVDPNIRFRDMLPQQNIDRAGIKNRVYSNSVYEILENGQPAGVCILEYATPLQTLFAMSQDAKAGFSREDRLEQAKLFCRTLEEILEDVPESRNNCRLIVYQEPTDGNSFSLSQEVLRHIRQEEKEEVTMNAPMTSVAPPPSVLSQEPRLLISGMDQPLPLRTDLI

SMILES: N.N.Nc1nc2c(ncn2[C@@H]2O[C@@H]3CO[P@@](=O)(S)O[C@H]4[C@H](F)[C@H](n5cnc6c(N)ncnc65)O[C@@H]4CO[P@@](=O)(S)O[C@@H]2[C@@H]3F)c(=O)[nH]1
- Drug uptake [1]: Active
- Drug uptake [2]: Active
- Drug uptake [3]: Active
- Drug uptake [4]: Active

SMILES: Nc1nc(=O)c2ncn([C@@H]3O[C@@H]4CO[P@@](=O)(S)O[C@H]5[C@H](F)[C@H](n6cnc7c(N)ncnc76)O[C@@H]5CO[P@@](=O)(S)O[C@@H]3[C@@H]4F)c2[nH]1
- Activity [5]: Active
- Activity [6]: Active
- Activity [7]: Active
- Activity [8]: Active
- Activity [9]: Active
- Activity [10]: Active
- Activity [11]: Active

SMILES: Nc1nc2c(ncn2[C@@H]2O[C@@H]3COP(=O)(O)O[C@H]4[C@@H](O)[C@H](n5cnc6c(N)ncnc65)O[C@@H]4COP(=O)(O)O[C@@H]2[C@@H]3O)c(=O)[nH]1
- Activity [12]: Active
- Activity [13]: Active
- Activity [14]: Active

SMILES: Nc1nc2c(ncn2[C@@H]2O[C@@H]3CO[P@@](=O)(S)O[C@H]4C[C@H](n5cnc6c(N)ncnc65)O[C@@H]4CO[P@@](=O)(S)O[C@@H]2[C@@H]3F)c(=O)[nH]1
- EC50 [15]: 3.21 µM

The next lines start with the values.

- EC50 [15]: 1.55 µM
SMILES: Nc1nc2c(ncn2[C@@H]2O[C@@H]3CO[P@@](=O)(S)O[C@H]4[C@@H](F)[C@H](n5cnc6c(N)ncnc65)O[C@@H]4CO[P@@](=O)(S)O[C@@H]2[C@@H]3O)c(=O)[nH]1

- EC50 [15]: 5.38 µM
SMILES: Nc1nc2c(ncn2[C@@H]2O[C@@H]3CO[P@@](=O)(S)O[C@H]4[C@H]5OC[C@]4(CO[P@@](=O)(S)O[C@@H]2[C@@H]3O)O[C@H]5n2cnc3c(N)ncnc32)c(=O)[nH]1

- EC50 [15]: 6.23 µM
SMILES: Nc1nc2c(ncn2[C@@H]2O[C@@H]3CO[P@@](=O)(S)O[C@H]4[C@@H](O)[C@H](n5cnc6c(N)ncnc65)O[C@@H]4CO[P@@](=O)(S)O[C@@H]2C3)c(=O)[nH]1

- EC50 [15]: > 100 µM
SMILES: Nc1nc2c(ncn2[C@@H]2O[C@@H]3COP(=O)(O)O[C@H]4[C@H]5OC[C@]4(COP(=O)(O)O[C@@H]2C3)O[C@H]5n2cnc3c(N)ncnc32)c(=O)[nH]1
